{"source": "patent US5612208A", "about": "“Ascorbate oxidase, gene encoding the same, process for producing the same, and reagent composition using the same” (Amano Pharmaceutical Co., Ltd., priority 1994, dated 1997)", "key": {"[1]": {"tested_on": "L-ascorbate oxidase (ASOD) of Eupenicillium brefeldianum APC-9315, purified native enzyme", "assay_type": "biochemical", "description": "The relative residual activity of ASOD after incubation with various inhibitors at 37° C. for 2 hours.\n(§1) To 0.1 ml of a sample to be assayed is added 0.5 ml of 10 mM Na2 HPO4 and 0.45 ml of 0.2M KH2 PO4 containing 1 mM EDTA, and the mixture is mixed and preincubated at 30° C. for 5 minutes. To the mixture is added 0.05 ml of a 10 mM substrate solution of L-ascorbic acid in 0,001N HCl containing 1 mM EDTA, followed by incubation at 30° C. for 10 minutes. The reaction is stopped by addition of 3.0 ml of 0.2N HCl, and a reduction in absorbance at 245 nm is measured. The amount of ASOD in the sample which decomposes 1 μmol of L-ascorbic acid per 1 minute is taken as one unit."}, "[2]": {"tested_on": "L-ascorbate oxidase (ASOD) of Eupenicillium brefeldianum APC-9315, purified native enzyme", "test": "Michaelis constant (Km) for L-ascorbic acid, spectrophotometry method", "assay_type": "biochemical", "details": "by the spectrophotometry method", "description": "(8) Michaelis Constant (Km) for L-Ascorbic Acid\n4.9×10^-4 M (by the spectrophotometry method)\nas §1"}, "[3]": {"tested_on": "ascorbate oxidase of microorganism of the genus Trichoderma or Mortierella (JP-A-6-209770)", "details": "data from JP-A-6-209770; read-out: Km (L-Ascorbate); cited from earlier work"}, "[4]": {"tested_on": "ascorbate oxidase (ASO) from spores of Myrothecium verrucaria", "details": "data from Nihon Eiyo-Shokuryo Gakkaishi, 40, (1), 47-51 (1987); read-out: Km (L-Ascorbate); cited from earlier work"}, "[5]": {"tested_on": "ascorbate oxidase of microorganism of the genus Trichoderma or Mortierella (JP-A-6-209770)", "details": "data from JP-A-6-209770; cited from earlier work"}, "[6]": {"tested_on": "ascorbate oxidase (ASO) of Acremonium sp. HI-25", "details": "data from Biosci. Biotechnol. Biochem., 56 (6), 847-852 (1992) & JP-A-3-236766; cited from earlier work"}, "[7]": {"tested_on": "ascorbate oxidase (ASO) from spores of Myrothecium verrucaria", "details": "data from Nihon Eiyo-Shokuryo Gakkaishi, 40, (1), 47-51 (1987); cited from earlier work"}, "[8]": {"target": "T1, ascorbate oxidase (ASO) of cucumber (Cucumis sativus, UniProt P14133)", "T1 construct": "cucumbers (T. Nakamura, N. Makino and Y. Ogura, J. Biochem., Vol. 64, p. 189 (1968)); host or cells: enzyme isolated from cucumbers", "T1 sequence (P14133 34-587)": "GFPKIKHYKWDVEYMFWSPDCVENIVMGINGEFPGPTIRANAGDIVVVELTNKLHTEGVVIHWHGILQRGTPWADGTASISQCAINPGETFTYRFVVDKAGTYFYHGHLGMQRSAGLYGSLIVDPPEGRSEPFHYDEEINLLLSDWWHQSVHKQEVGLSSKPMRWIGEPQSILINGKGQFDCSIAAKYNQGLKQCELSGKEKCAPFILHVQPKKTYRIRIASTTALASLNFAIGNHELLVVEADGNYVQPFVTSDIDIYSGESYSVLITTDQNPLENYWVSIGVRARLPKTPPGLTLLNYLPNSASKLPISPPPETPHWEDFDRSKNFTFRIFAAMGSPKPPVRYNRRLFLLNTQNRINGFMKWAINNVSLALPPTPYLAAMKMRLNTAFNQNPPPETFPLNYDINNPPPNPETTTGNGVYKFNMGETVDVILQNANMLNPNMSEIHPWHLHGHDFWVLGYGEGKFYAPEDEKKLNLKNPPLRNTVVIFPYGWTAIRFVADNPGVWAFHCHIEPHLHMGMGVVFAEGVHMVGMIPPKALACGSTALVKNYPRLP", "details": "data from J. Biochem., 64 189 (1968); cited from earlier work"}, "[9]": {"details": "incubation with inhibitor at 37° C. for 2 hours, inhibitor concentration not printed"}}, "note": "Read-outs that look alike come from different tables or passages of the source."}
{"compound": "O[C@H](CS)[C@H](O)CS", "note": "(racemic) [dithiothreitol]", "values": [{"measurement": "Inhibition by inhibitor (relative residual activity), in words", "setting": "[1]; [9]", "result": "not substantially inhibited"}]}
{"compound": "O=C1O[C@H]([C@@H](O)CO)C(O)=C1O", "note": "[L-Ascorbic Acid, L-ascorbic acid]", "values": [{"measurement": "Km", "setting": "[2]", "result": 490, "unit": "µM"}, {"measurement": "Km", "setting": "[3]", "result": 700, "unit": "µM"}, {"measurement": "Km", "setting": "[4]", "result": 3000, "unit": "µM"}]}
{"compound": "O=C(O)CI", "note": "[monoiodoacetic acid]", "values": [{"measurement": "Inhibition by inhibitor, in words", "setting": "[5]", "result": "uninhibited"}, {"measurement": "Inhibition by inhibitor", "setting": "[1]", "result": 50, "unit": "%"}, {"measurement": "Inhibition by inhibitor (relative residual activity), in words", "setting": "[1]", "result": "inhibited partially"}]}
{"compound": "[N-]=[N+]=[N-]", "note": "[sodium azide]", "values": [{"measurement": "Inhibition by inhibitor, in words", "setting": "[6]", "result": "inhibited"}, {"measurement": "Inhibition by inhibitor, in words", "setting": "[7]", "result": "uninhibited"}, {"measurement": "Inhibition by inhibitor, in words", "setting": "[8]", "result": "inhibited"}, {"measurement": "Inhibition by inhibitor (relative residual activity), in words", "setting": "[1]; [9]", "result": "not substantially inhibited"}, {"measurement": "Inhibition by inhibitor (relative residual activity), in words", "setting": "[1]; incubation with inhibitor at 37° C. for 2 hours, inhibitor concentration not printed, listed as Sodium Azide", "result": "uninhibited"}]}
